This passage reports PTX released, IC50 and solubility results from patent US20120045515A1, “HOLLOW SILICA PARTICLE WITH A POLYMER THEREON” (priority 2009, published 2012).

Broadly, the IC50 is the concentration that gives 50% inhibition. High values mean weaker potency, low ones greater potency. What is called solubility is the concentration that dissolves in the medium under given conditions.

Values after ≈ are worked out from the molar mass of the structure shown.

Data set [1] is described as follows: Release profile of paclitaxel by dialysis in 1×PBS buffer at 37° C., HPLC. It is filed as physicochemical. To be noted: after 330 h, 1×PBS buffer solution. The procedure: In a typical process, 0.7 mg of paclitaxel loaded PEG-graft-hollow silica was dispersed in 3 ml of 1×PBS buffer solution under ultrasonication for 2 h at a temperature below 30° C. The solution was transferred into a dialysis tube with a molecular weight cutting of 10 000. The dialysis tube was placed into a conical flask containing 40 ml of 1×PBS buffer solution. The conical flask was kept in a water bath at 37° C. and was stirred at 100 rpm. The outside buffer solution was exchanged with a fresh buffer solution at a predetermined time interval to maintain a sink condition. The released paclitaxel was extracted from the drawn buffer solution using 4 ml of dichloromethane. After shaking and setting down, the dichloromethane solution was collected. After chloromethane was evaporated at room temperature, the solid reconstituted in 2 mL of acetonitrile/water (50:50; v/v) for HPLC measurement to determine PTX amounts.
To measure the release profile of free PTX, 2 mg of PTX was firstly dissolved in 4 mL methanol to get a solution of a concentration of 0.5 mg/mL. After ultrasonication for 40 min, 0.4 mL of the solution was taken out and was dried by evaporating methanol. The solid was dissolved in 3 mL of 1×PBS solution (pH 7.4), and the release profile was monitored.

Data set [2] concerns U-87 MG cells. The experiment in a line: In vitro cytotoxicity, MTT assay, in U-87 MG cells. To be noted: Homo sapiens, incubation for 72 h. It is filed as cell-based. The procedure: (§1) Cytotoxicity of pure PTX, PEG-g-hollow silica vesicles, and PTX loaded PEG-g-hollow silica vesicles was evaluated in MCF-7 cell lines and U-87 MG cell lines. Viability of the cells was assessed by the standard thiazolyl blue [3-(4,5-dimethyliazolyl-2)-2,5-diphenyl tetrazolium bromide] (MTT) assay. This colorimetric assay allows determination of the number of viable cells through the metabolic activity of the cells.
(§2) The cancer cells were seeded in 96-well plates with a seeding density 10,000 cells/well and were cultured in DMEM supplemented with 10% FBS and 1% penicillin/streptomycin solution in an incubator at 37° C., 5% CO2, and 95% relative humidity. The cells were allowed to adhere to the well bottom upon overnight incubation. Then the medium was replaced with the sample solutions of different concentrations. Meanwhile, wells containing only cell culture medium were prepared as untreated controls. At the predetermined time, the medium containing samples was aspirated and the wells were washed with 1×PBS solution for two times to removed non-internalized sample. […] The absorbance intensity of the solution was then quantified spectrophotometrically using a microplate reader (TECAN SpectraFluor Plus) at 570 nm. […]
(§3) where Abssample was the absorbance for the cells treated with the samples, while Abscontrol was the absorbance for the untreated control cells. […]

Data set [3] can be described thus: Saturated solubility of PTX in methanol. As to conditions: organic solvent or mixture, saturated solution in methanol. It is filed as physicochemical.
Data set [4] has as its system MCF-7 cells. Kind of data set: In vitro cytotoxicity, MTT assay, in MCF-7 cells. As to conditions: Homo sapiens, MCF7, incubation for 72 h. It is filed as cell-based. The procedure:
as §1, §2, §3
Background: Tetrazolium assays rely on reduction of a dye to a coloured formazan, in cell work by metabolically active cells.

In the case of `CC(=O)O[C@H]1C(=O)[C@@]2(C)[C@H]([C@H](OC(=O)c3ccccc3)[C@]3(O)C[C@H](OC(=O)[C@H](O)[C@@H](NC(=O)c4ccccc4)c4ccccc4)C(C)=C1C3(C)C)[C@]1(OC(C)=O)CO[C@@H]1C[C@@H]2O` [free PTX, paclitaxel], in data set [1], the PTX released was 5%. The figures for the IC50 in data set [2] and in data set [4] were 0.073 µg/mL (≈ 0.0855 µM) and 0.1 µg/mL (≈ 0.117 µM), respectively. Moreover, the solubility in data set [3] was 50 mg/mL (≈ 58600 µM).
